Entries after “also recorded” stand apart in the source; their conditions may differ.
Tested on: human fat pads
Experiment: Human fat xenograft in nude athymic mice
Type: in vivo
Experimental: In addition to augmenting mouse fat with NPY, human fat from elective liposuction surgery is harvested by using a closed syringe system (Cell Friendly, Tulip Medical) to minimize cell trauma during harvest and aliquots of 100 μl are injected subcutaneously into a nude athymic mouse. Slow release pellets of NPY or placebo are subcutaneously implanted within 1 cm of the fat pad, replaced 2 weeks later, and then harvested after 4 weeks of formation of fat pads. Ultrasound is used to monitor vascularization of fat pads at various time points. The time-course of expression of the NPY system and its downstream mediators is determined in relation to innervation, vascularization and fat growth (by MRI, ultrasound, IHC). Dependence of adipogenesis on angiogenesis is assessed by comparing non-specific, antiangiogenic therapy with the blockade of the NPY-Y2 angiogenic pathway. […] This observation is confirmed by ultrasound (FIG. 7, bottom).
Human fat implantation: The processed fat for injection is loaded into syringes. The nude mice are anesthetized and slow release pellets inserted as described above. A small nick is made with a pair of sterile scissors in the close proximity of the pellets and 100 μl of fat is implanted using an 18 gauge Coleman infiltration cannula (Byron Medical) attached to the syringe. If necessary, the skin wound is closed with medical cyanoacrylate and the mouse is allowed to recover. The fat pad growth is monitored and the sample harvested as described above.
Ultrasonography: The mice are anesthetized by inhalation of isoflurane 1-3% in oxygen, hair removed with depilatory cream and a sterile water based ultrasonic gel is applied to the area (Aquasonic gel—Visual Sonics). The mouse is placed in the Visual Sonics mouse holder containing a thermostatically controlled heating pad to maintain mouse body temperature. The imaging is performed with a small animal ultrasound system, Visual Sonics Vivo 660 (55 MHz).
1. Cell culture: 3T3-L1 preadipocyte cells, (gift from Dr. Lane,^34) were cultured in DMEM high glucose media with glutamine, 10% calf sera (Gemini Bioproducts), d-Biotin (8 μg/ml) and Pantothenate (8 μg/ml) (Sigma). SK-N-BE(2) neuroblastoma cells (ATCC) were cultured in EMEM/F12K with 10% fetal bovine sera (FBS). HMVEC endothelial cells (Cambrex) were cultured in endothelial cell growth media (Cambrex). All media was supplemented with 100 units/ml penicillin, 100 μg/ml streptomycin and […] amphotericin. 2. […] After 24 h, cells were harvested in a 96-well harvester (Tomtec) and counted in a Betaplate Liquid Scintillation Counter (Wallac). […] After 48 hr, the cells were counted with a Beckman Coulter Counter. […]

[1] = NPY pellet vs placebo pellet, FIG. 7

Substance: neuropeptide Y [NPY]
- xenograft vascularization (density of CD31+ vessels) (NPY pellet 1 μg/14 days alongside the xenograft): increased
- xenograft 3-month survival (NPY pellet 1 μg/14 days, placebo-treated grafts underwent resorption): increased
- areas of more dense necrotic tissue (ultrasound) [1]: more in NPY-treated than placebo-treated
- vacuolization / holes in fat pads (ultrasound, IHC) [1]: more holes in the placebo-pellet treated fat pads; also recorded: more numerous in placebo-treated than NPY-treated fat pads

— patent US20090317376A1, “Compositions And Methods For Lipo Modeling” (Georgetown University MEDICAL SCHOOL, priority 2005, published 2009)
